Results published in ChEMBL document CHEMBL1201862, “PubChem BioAssay data set” (2004).
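Compound exposure: 48 hours, 5 concentrations, 96-well plates. Here, GI50 denotes the concentration required for 50% inhibition of growth.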 Active and inactive are the calls of the source. Rule as the data show it: active = GI50 up to about 1.1 µM and inactive = higher.

Columns and labels:
Test in all cases: growth of human tumour cells (NCI), 48 h
NCI-H522 = system: NCI-H522
786-0 = system: 786-0
ACHN = system: ACHN
BT-549 = system: BT-549
PC-3 = system: PC-3
CAKI-1 = system: CAKI-1
Malme-3M = system: Malme-3M
MDA-MB-231 = system: MDA-MB-231
SR = system: SR
A549 = system: A549
UACC-257 = system: UACC-257
NCI-H460 = system: NCI-H460
SF-268 = system: SF-268
Hs-578T = system: Hs-578T
EKVX = system: EKVX
UACC-62 = system: UACC-62
NCI-H23 = system: NCI-H23
HOP-62 = system: HOP-62
A498 = system: A498
U-251 = system: U-251
SNB-19 = system: SNB-19
UO-31 = system: UO-31
SF-539 = system: SF-539
MDA-N = system: MDA-N
SW-620 = system: SW-620
K562 = system: K562
HT-29 = system: HT-29
NCI-H226 = system: NCI-H226
HL-60 = system: HL-60
RXF 393 = system: RXF 393
IGROV-1 = system: IGROV-1
KM12 = system: KM12
HCC 2998 = system: HCC 2998
CCRF-CEM = system: CCRF-CEM
SNB-75 = system: SNB-75
OVCAR-8 = system: OVCAR-8
SK-MEL-5 = system: SK-MEL-5
LOX IMVI = system: LOX IMVI
MDA-MB-435 = system: MDA-MB-435
SK-MEL-28 = system: SK-MEL-28
HOP-92 = system: HOP-92
OVCAR-5 = system: OVCAR-5
OVCAR-4 = system: OVCAR-4
OVCAR-3 = system: OVCAR-3
HCT-116 = system: HCT-116
RPMI-8226 = system: RPMI-8226
SN12C = system: SN12C
SK-OV-3 = system: SK-OV-3
T47D = system: T47D
DU-145 = system: DU-145
HCT-15 = system: HCT-15
COLO 205 = system: COLO 205
SF-295 = system: SF-295
SK-MEL-2 = system: SK-MEL-2
MCF7 = system: MCF7
NCI/ADR-RES = system: NCI/ADR-RES
TK-10 = system: TK-10
M14 = system: M14
MOLT-4 = system: MOLT-4

## CCCCCc1cc(CCCC)sc1-c1ccco1
NCI-H522
  GI50: > 100 µM (inactive)
786-0
  GI50: > 100 µM (inactive)
ACHN
  GI50: > 100 µM (inactive)
BT-549
  GI50: > 100 µM (inactive)
PC-3
  GI50: > 100 µM (inactive)
CAKI-1
  GI50: > 100 µM (inactive)
Malme-3M
  GI50: 40 µM (inactive)
MDA-MB-231
  GI50: > 100 µM (inactive)
SR
  GI50: 44.2 µM (inactive)
A549
  GI50: 40 µM (inactive)
UACC-257
  GI50: > 64.3 µM (inactive)
NCI-H460
  GI50: > 100 µM (inactive)
SF-268
  GI50: > 100 µM (inactive)
Hs-578T
  GI50: > 100 µM (inactive)
EKVX
  GI50: > 87.1 µM (inactive)
UACC-62
  GI50: > 100 µM (inactive)
NCI-H23
  GI50: > 100 µM (inactive)
HOP-62
  GI50: > 100 µM (inactive)
A498
  GI50: > 100 µM (inactive)
U-251
  GI50: > 76.7 µM (inactive)
SNB-19
  GI50: > 100 µM (inactive)
UO-31
  GI50: > 100 µM (inactive)
SF-539
  GI50: > 93.8 µM (inactive)
MDA-N
  GI50: > 80.5 µM (inactive)
SW-620
  GI50: > 100 µM (inactive)
K562
  GI50: > 58.2 µM (inactive)
HT-29
  GI50: 45 µM (inactive)
NCI-H226
  GI50: > 100 µM (inactive)
HL-60
  GI50: 21.7 µM (inactive)
RXF 393
  GI50: 45.8 µM (inactive)
IGROV-1
  GI50: > 100 µM (inactive)
KM12
  GI50: > 86.9 µM (inactive)
HCC 2998
  GI50: > 95.9 µM (inactive)
CCRF-CEM
  GI50: 30.5 µM (inactive)
SNB-75
  GI50: > 100 µM (inactive)
OVCAR-8
  GI50: > 100 µM (inactive)
SK-MEL-5
  GI50: > 100 µM (inactive)
LOX IMVI
  GI50: 49.9 µM (inactive)
MDA-MB-435
  GI50: 66.5 µM (inactive)
SK-MEL-28
  GI50: > 100 µM (inactive)
HOP-92
  GI50: > 100 µM (inactive)
OVCAR-5
  GI50: > 87.3 µM (inactive)
OVCAR-4
  GI50: > 100 µM (inactive)
OVCAR-3
  GI50: > 74.8 µM (inactive)
HCT-116
  GI50: 29.6 µM (inactive)
RPMI-8226
  GI50: 55.3 µM (inactive)
SN12C
  GI50: > 100 µM (inactive)
SK-OV-3
  GI50: > 100 µM (inactive)
T47D
  GI50: > 91.2 µM (inactive)
DU-145
  GI50: > 100 µM (inactive)
HCT-15
  GI50: > 100 µM
COLO 205
  GI50: > 100 µM (inactive)
SF-295
  GI50: > 85.5 µM (inactive)
SK-MEL-2
  GI50: > 83.9 µM (inactive)
MCF7
  GI50: 76.4 µM (inactive)
NCI/ADR-RES
  GI50: > 100 µM (inactive)
TK-10
  GI50: > 100 µM (inactive)
M14
  GI50: 97.5 µM (inactive)
MOLT-4
  GI50: 51.9 µM (inactive)

## CC(C)=CCC[C@](C)(O)[C@H]1CC[C@]2(C)[C@@H]1[C@H](O)C[C@@H]1[C@@]3(C)CC[C@H](O[C@@H]4O[C@H](CO)[C@@H](O)[C@H](O)[C@H]4O)C(C)(C)[C@@H]3CC[C@]12C [GINSENOSIDE RH2]
NCI-H522
  GI50: 17.2 µM (inactive)
786-0
  GI50: 20.2 µM (inactive)
ACHN
  GI50: 17.8 µM (inactive)
BT-549
  GI50: 18 µM (inactive)
PC-3
  GI50: 17.6 µM (inactive)
CAKI-1
  GI50: 18.7 µM (inactive)
Malme-3M
  GI50: 18.4 µM (inactive)
MDA-MB-231
  GI50: 18.2 µM (inactive)
SR
  GI50: 14 µM (inactive)
A549
  GI50: 18.8 µM (inactive)
UACC-257
  GI50: 20.9 µM (inactive)
NCI-H460
  GI50: 16.6 µM (inactive)
SF-268
  GI50: 15.8 µM (inactive)
Hs-578T
  GI50: 21.9 µM (inactive)
EKVX
  GI50: 22.7 µM (inactive)
UACC-62
  GI50: 16.6 µM (inactive)
NCI-H23
  GI50: 20.6 µM (inactive)
HOP-62
  GI50: 32.6 µM (inactive)
A498
  GI50: 19.8 µM (inactive)
U-251
  GI50: 17.7 µM (inactive)
SNB-19
  GI50: 20 µM (inactive)
UO-31
  GI50: 17.4 µM (inactive)
SF-539
  GI50: 22.2 µM (inactive)
MDA-N
  GI50: 19.8 µM (inactive)
SW-620
  GI50: 19.5 µM (inactive)
K562
  GI50: 19.8 µM (inactive)
HT-29
  GI50: 15.5 µM (inactive)
NCI-H226
  GI50: 17.6 µM (inactive)
HL-60
  GI50: 21 µM (inactive)
RXF 393
  GI50: 17 µM (inactive)
IGROV-1
  GI50: 16.3 µM (inactive)
KM12
  GI50: 17.6 µM (inactive)
HCC 2998
  GI50: 27.9 µM (inactive)
CCRF-CEM
  GI50: 23.5 µM (inactive)
SNB-75
  GI50: 19.1 µM (inactive)
OVCAR-8
  GI50: 17.9 µM (inactive)
SK-MEL-5
  GI50: 18.1 µM (inactive)
LOX IMVI
  GI50: 29 µM (inactive)
MDA-MB-435
  GI50: 18.2 µM (inactive)
SK-MEL-28
  GI50: 19.9 µM (inactive)
HOP-92
  GI50: 18.7 µM (inactive)
OVCAR-5
  GI50: 26.2 µM (inactive)
OVCAR-4
  GI50: 21.5 µM (inactive)
OVCAR-3
  GI50: 17.9 µM (inactive)
HCT-116
  GI50: 26.2 µM (inactive)
RPMI-8226
  GI50: 19.1 µM (inactive)
SN12C
  GI50: 16.7 µM (inactive)
SK-OV-3
  GI50: 18.5 µM (inactive)
T47D
  GI50: 18.2 µM (inactive)
DU-145
  GI50: 19.5 µM (inactive)
HCT-15
  GI50: 17.5 µM
COLO 205
  GI50: 19.5 µM (inactive)
SF-295
  GI50: 23 µM (inactive)
SK-MEL-2
  GI50: 15.9 µM (inactive)
MCF7
  GI50: 17.3 µM (inactive)
NCI/ADR-RES
  GI50: 25.1 µM (inactive)
TK-10
  GI50: 21.4 µM (inactive)
M14
  GI50: 27.2 µM (inactive)
MOLT-4
  GI50: 17.1 µM (inactive)
